From US20050261246A1, “Methods for treating inflammatory and autoimmune diseases” (priority 2004, published 2005)

Tests used:
[1] = system: VEGF production in human cancer cell lines; assay: VEGF production in human cancer cell lines (ELISA); type: cell-based
Method: (A) Effect of SNS on VEGF production was analyzed in two cancer cell lines (both supernatants and cell lysates). (B) The supernatant from control and drug treated H460 cells was analyzed for the level of VEGF (pg/ml). C. […] Statistical analyses were performed using one-way ANOVA.
As discussed above, SNS and pancratastatin were originally synthesized as an anti-cancer agent. The inventors also examined the effect of SNS and pancratastatin on the production of VEGF in human cancer cell lines (FIG. 2). […] This analysis had been performed at least 3-5 times depending on the cell lines and drug used, with statistical analysis performed using one-way ANOVA.

[2] = system: NO production in LPS-stimulated RAW 264.7 cells; assay: NO production in LPS-stimulated RAW264.7 macrophage cell line (Griess reaction); type: cell-based, mouse; conditions: pre-treated with different concentrations, then 1 ng/ml LPS
Method: Cells were pre-treated with different concentrations of SNS and then followed by stimulation with LPS. C is medium control. LPS, positive control without SNS treatment. The statistical analysis was performed using one-way ANOVA.
In further tests, we investigated the effect of SNS on the production of NO in a mouse macrophage cell line, RAW264.7. Cells were pre-treated with different concentrations of SNS and subsequently stimulated with 1 ng/ml of LPS. The level of NO production was measured by a spectrophotographic method using the Griess reaction. […] “C” is medium control, and “LPS” is positive control without SNS treatment. This analysis had been performed at least 3-5 times depending on the cell lines and drug used, with statistical analysis performed using one-way ANOVA.

CAIA mice = assay: Collagen type II antibody-induced arthritis (CAIA) mouse model; type: in vivo
Method: FIG. 9A-H the effect of SNS on hind paw swelling in CAIA mice. A and E: Day 0, B and F: Day 7, C: Day 10 in PBS-treated CAIA, G: Day 10 in SNS-treated CAIA after 3 injections, D: Day 12 in PBS-treated mice, and H: Day 12 in SNS-treated CAIA mice after five injections. SNS treatment was started on day 7 after anti-collagen type II mAb injection and i.p. injections of SNS were continued for 5 consecutive days at a dose of 5 mg/kg.
FIG. 10 is a graph of the data (exemplified in FIG. 9) on CAIA progression and effect of SNS on foot pad measurements in CAIA mice. Solid square: PBS-treated CAIA group (n=5), closed triangle: SNS-treated CAIA group (n=5). SNS treatment (i.p.) was started on day 7 after anti-collagen type II mAb injection, and SNS injections were continued for 5 consecutive days at a dose of 5 mg/kg. Values represent mean±S.E.M. P<0.0001. Statistical analysis was performed using t-test.
Sections of ankle joints were stained with hematoxylin and eosin (original magnification, ×10) on day 21 after mAb injection. SNS treatment (i.p.) was started on day 7 after anti-collagen type II mAb injection, and SNS injections were continued for 5 consecutive days at a dose of 5 mg/kg. Representative joint sections in non-CAIA group (A and D), PBS-treated CAIA (B and E), and SNS-treated CAIA (C and F) are shown at magnifications of ×10 and ×40, respectively.
Collagen-induced arthritis (CIA) is an experimental model for rheumatoid arthritis. In this model, antibodies against type II collagen are critical for the pathogenesis of arthritis. […] This model system has been used for investigating underlying cellular and molecular mechanisms during the effector phase of CIA (1).
FIGS. 9-10 show CAIA progression and the effect of SNS on hind paw swelling in CAIA mice. […] A and E: Day 0 (mAb immunization), B and F: Day 7 after antibody injection, C. Day10 after immunization in PBS-treated CAIA, G: Day 10 after immunization in SNS-treated CAIA after three SNS injections, D: Day 12 after immunization in PBS-treated CAIA mice, and […]: Day 12 after immunization in SNS-treated CAIA mice after five SNS injections. Ib. […] Solid square: control CAIA group treated with PBS (n=5), closed triangle: sodium narcistatin-treated CAIA group (n=5). Values represent mean±S.E.M. p<0.0001 vs. control CAIA group.

[3] = system: CD11c+/CD40+/CD86+ spleen cells; assay: Splenic dendritic, B and T cells in non-CAIA Balb/c mice treated with SNS (FACS); type: in vivo, mouse; conditions: 5 mg/kg i.p. five consecutive days
Method: (A) Reduction of CD11c+/CD40+/CD86+ cells isolated from spleens of non-CAIA Balb/c mice treated i.p. with SNS at 5 mg/kg or with PBS for 5 consecutive days. Spleens were isolated on the next day after the last SNS injection and splenocytes were analyzed using FACS. The percentage value represents CD11c+/CD40+/CD86+ cell percentage out of the entire splenocyte population. […] Values on X and Y axes represent fluorescence intensity for cell surface markers CD11c and CD40, B220, and CD90.2 (Thy-1), respectively.
Balb/c mice were treated i.p. with SNS for five consecutive days at 5 mg/kg and their spleen were harvested the next day after the last injection. Control mice received same numbers of injection of PBS. Splenic cells were stained with fluorescence-labeled antibodies, and analyzed by flow cytometry.

[4] = system: TNFα and MCP-1 production; assay: In vivo air-pouch assay, LPS-stimulated cytokine production; set-up: species or system mouse; conditions: SNS 5 mg/kg then LPS 1 μg/ml, vs LPS-stimulated controls
Method: The reduction of TNF-alpha (P=0.04) and MCP-1 (P=0.03) in SNS-treated mice upon LPS stimulation. PBS_PBS: PBS followed by PBS; PBS_LPS: PBS followed by LPS (1 μg/ml); SNS_PBS: SNS followed by PBS; SNS_LPS: SNS (5 mg/kg) followed by LPS (1 μg/ml). Results are derived from three independent experiments. Statistical analysis was performed using one-way ANOVA.
To further test effects of SNS in whole animals, we established an air-pouch assay to evaluate the effect of the compound, SNS, on LPS-stimulated cytokine production, following a procedure described previously (9). (See FIG. 14) Mice were pre-treated with PBS or SNS then challenged with LPS. The pouch wash-out was then analyzed for cytokine production using BD™ CBA Mouse Inflammatory Kit (BD Biosciences).

## O=C1N[C@@H]2C(=C[C@H](O)[C@H]3OP(=O)(O)O[C@H]32)c2cc3c(c(O)c21)OCO3 [SNS, sodium narcistatin]
[1]
  VEGF production, narcistatin compared with pancratistatin: comparable inhibition on VEGF production
[1]; human cancer cell lines, ELISA
  effect on VEGF production/secretion: significantly suppresses the secretion of VEGF
[2]
  NO production: concentration-dependent inhibition of NO production
CAIA mice; CAIA mice, 5 mg/kg i.p.
  joint swelling after the fifth injection: swelling disappeared
  joint swelling after the third injection: reduced joint swelling
CAIA mice; CAIA mice, 5 mg/kg i.p. 5 consecutive days from day 7, vs saline-treated, P<0.0001
  ankle width: significant decrease
CAIA mice; CAIA mice, day 21, hematoxylin and eosin
  histology of ankle joints: inflammatory infiltration, cartilage and bone destruction: very little inflammatory infiltration to ankle joints and virtually no cartilage and bone destruction
CAIA mice; at the dosage used
  toxicity in CAIA study: toxic to the animals
CAIA mice; mice that only received SNS
  toxicity, SNS treatment only: did not observe toxicity
CAIA mice; mouse, in vivo
  toxicity, combination of SNS and LPS treatment: appeared to increase toxicity
[3]
  CD11c+/CD86+/CD40+ spleen cells (mature dendritic cells): reduction of CD11c+/CD86+/CD40+ spleen cells
  T- and B-cell profile (B220, CD90.2): not affected
[4]; P=0.03
  MCP-1 in air-pouch wash-out: significantly reduced
[4]; P=0.04
  TNFα in air-pouch wash-out: significantly reduced
